Measured values from ChEMBL document CHEMBL1201862, “PubChem BioAssay data set” (2004).
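Growth conditions: 96-well plates. Treatment: test compound, 48 hours, 5 concentrations. Analysis: linear interpolation between bracketing concentrations; unreached endpoints set to highest concentration. GI50 = concentration required for 50% inhibition of growth.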 Activity calls are given as the source filed them. No stated cut-off is given here; in the data, active = GI50 up to about 1.1 µM and inactive = higher.

Experiments:
Assay in all cases: DTP human tumour cell line panel, 48 h
[1] = tested on: SN12C
[2] = tested on: UACC-62
[3] = tested on: SK-MEL-28
[4] = tested on: Malme-3M
[5] = tested on: U-251
[6] = tested on: ACHN
[7] = tested on: HT-29
[8] = tested on: DU-145
[9] = tested on: OVCAR-3
[10] = tested on: COLO 205
[11] = tested on: PC-3
[12] = tested on: Hs-578T
[13] = tested on: CAKI-1
[14] = tested on: HCT-116
[15] = tested on: NCI-H522
[16] = tested on: K562
[17] = tested on: T47D
[18] = tested on: NCI-H460
[19] = tested on: MDA-MB-231
[20] = tested on: RXF 393

Measured: GI50

Cc1ccc(S(=O)(=O)N/N=C2/CCC3(O)CC2(C)CCC2[C@H]3CC2(C)C)cc1 (stereo partly drawn)
inactive: [1] 33.3 µM | [2] 20.3 µM | [3] 24.9 µM | [4] 35.3 µM | [5] 17.5 µM | [6] 29.8 µM | [7] 33.6 µM | [8] 36.6 µM | [9] 40.2 µM | [10] 16.3 µM | [11] 12.5 µM | [12] 35.5 µM | [13] 52.6 µM | [14] 24.8 µM | [15] 26.2 µM | [16] 16.9 µM | [17] > 100 µM | [18] 22.8 µM

CN(/N=C/c1ccc(Cl)cc1)C1=NCCCCN1
inactive: [1] 81.5 µM | [2] 67.1 µM | [4] 62.8 µM | [5] > 100 µM | [6] > 100 µM | [7] 66.2 µM | [8] > 100 µM | [9] > 100 µM | [10] 35.1 µM | [11] 32.9 µM | [19] 35 µM | [12] > 100 µM | [13] > 100 µM | [14] 48.1 µM | [15] 39.4 µM | [16] 18.9 µM | [17] > 100 µM | [18] > 100 µM

Cc1ccc2c3c(cnc2n1)C(=O)OCCN3C
inactive: [1] > 100 µM | [2] > 100 µM | [3] > 100 µM | [5] > 100 µM | [6] > 100 µM | [7] > 100 µM | [20] > 100 µM | [8] > 100 µM | [9] > 100 µM | [10] > 100 µM | [11] > 100 µM | [19] > 100 µM | [12] > 100 µM | [13] > 100 µM | [14] > 100 µM | [15] > 100 µM | [16] > 100 µM | [17] > 100 µM | [18] > 100 µM

Cc1ccc(Nc2nc(=O)c3c4ccccc4n(C(=O)OC(C)(C)C)c3s2)cc1
inactive: [2] 18.5 µM | [3] 44.9 µM | [4] 28.4 µM | [5] 30.1 µM | [6] 35.5 µM | [7] 30.1 µM | [8] 33.7 µM | [9] 23.1 µM | [10] 35.4 µM | [11] 29 µM | [19] 33.1 µM | [12] 33.2 µM | [13] 18.2 µM | [15] 22.5 µM | [16] 27.4 µM | [17] 39.2 µM | [18] 15.7 µM

COc1cc(S(=O)(=O)Nc2ccc(-c3csc(N4C(=O)CSC4c4cccs4)n3)cc2)ccc1Cl (stereo not drawn)
inactive: [1] 25.8 µM | [3] 19.9 µM | [4] 27.9 µM | [6] > 100 µM | [7] 39.8 µM | [20] 11.2 µM | [8] 22.1 µM | [9] 51.5 µM | [10] 31.8 µM | [11] 24.9 µM | [12] 30.3 µM | [13] 79.8 µM | [14] 31.3 µM | [15] 15.9 µM | [16] 22.6 µM | [18] 29.3 µM

COc1ccccc1/C=C/c1ccnc2ccccc12
inactive: [1] 18.1 µM | [2] 11.7 µM | [3] 17.4 µM | [4] 11.7 µM | [5] 11.9 µM | [6] 16.4 µM | [7] 12.8 µM | [8] 16.4 µM | [9] 13.8 µM | [10] 17.1 µM | [11] 14.3 µM | [19] 16.1 µM | [12] 14.7 µM | [13] 14.6 µM | [14] 13.6 µM | [16] 10.7 µM | [18] 15.5 µM

O=C(O)CN1CCN2CCCCCN(CC1)CCN(CC(=O)O)CC2
inactive: [1] > 100 µM | [2] > 100 µM | [3] > 100 µM | [4] 22.4 µM | [5] > 100 µM | [6] > 100 µM | [7] 31.2 µM | [8] > 100 µM | [9] > 100 µM | [10] > 100 µM | [11] > 100 µM | [19] > 100 µM | [12] 31.8 µM | [13] > 100 µM | [14] 73.8 µM | [15] 53.3 µM | [16] > 100 µM | [17] > 100 µM | [18] 91.4 µM

CCOP(=O)(OCC)C(C)(CC)NC (stereo not drawn)
inactive: [1] > 100 µM | [2] > 100 µM | [3] > 100 µM | [4] > 100 µM | [5] > 100 µM | [6] > 100 µM | [7] > 100 µM | [20] > 100 µM | [8] > 100 µM | [9] > 100 µM | [10] > 100 µM | [19] > 100 µM | [12] > 100 µM | [13] > 100 µM | [14] > 100 µM | [15] > 100 µM | [16] > 100 µM | [17] > 100 µM | [18] > 100 µM
